# Data: publication doi:10.1101/2025.02.02.636098v1 (biorxiv, 2025)
# What was measured:
# mFFA4 (mouse FFA4) [1] = target: T1, mFFA4 (mouse FFA4) (Mus musculus, UniProt Q7TMA4); assay: bystander BRET arrestin-3 recruitment, HEK293T; format: cell-based
# T1 sequence (Q7TMA4 1-361): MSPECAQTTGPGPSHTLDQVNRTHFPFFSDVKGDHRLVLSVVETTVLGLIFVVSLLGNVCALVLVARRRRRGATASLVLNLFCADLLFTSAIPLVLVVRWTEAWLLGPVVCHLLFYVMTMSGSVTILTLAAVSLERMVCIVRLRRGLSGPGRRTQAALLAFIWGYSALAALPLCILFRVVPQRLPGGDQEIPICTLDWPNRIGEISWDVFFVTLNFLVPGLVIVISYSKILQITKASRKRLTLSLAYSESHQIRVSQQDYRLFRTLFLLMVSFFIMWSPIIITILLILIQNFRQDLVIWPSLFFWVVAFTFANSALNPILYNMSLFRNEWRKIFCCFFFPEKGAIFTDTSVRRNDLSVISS
# mFFA4 (mouse FFA4) [2] = target: T1, mFFA4 (mouse FFA4); assay: Ca2+ mobilisation, Fura-2, Flp-In T-REx […]; format: cell-based
IC50 (mFFA4 (mouse FFA4) [1]),EC50 (mFFA4 (mouse FFA4) [2]),SMILES
0.2 µM,–,"Cc1ccc(S(=O)(=O)NC2c3ccccc3Oc3ccccc32)cc1 [AH7614, 4-Methyl-N-9H-xanthen-9-yl-benzenesulfonamide]"
–,10 µM,CC/C=C\C/C=C\C/C=C\CCCCCCCC(=O)O [aLA]
